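Briefly, cells in 96-well plates were exposed to five compound concentrations for 48 h, and endpoints were estimated by linear interpolation. GI50 = concentration required for 50% inhibition of growth.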 Calls of active or inactive are those of the source. No stated cut-off is given here; in the data, active = GI50 up to about 1.1 µM and inactive = higher.
Assays:
Assay in all cases: NCI tumour cell line growth inhibition, 48 h
[1] = tested on: 786-0
[2] = tested on: A498
[3] = tested on: A549
[4] = tested on: ACHN
[5] = tested on: BT-549
[6] = tested on: CAKI-1
[7] = tested on: CCRF-CEM
[8] = tested on: COLO 205
[9] = tested on: DU-145
[10] = tested on: EKVX
[11] = tested on: HCC 2998
[12] = tested on: HCT-116
[13] = tested on: HCT-15
[14] = tested on: HOP-62
[15] = tested on: HOP-92
[16] = tested on: HT-29
[17] = tested on: Hs-578T
[18] = tested on: IGROV-1
[19] = tested on: K562
[20] = tested on: KM12
[21] = tested on: LOX IMVI
[22] = tested on: M14
[23] = tested on: MCF7
[24] = tested on: MDA-MB-231
[25] = tested on: MDA-MB-435
[26] = tested on: MDA-N
[27] = tested on: MOLT-4
[28] = tested on: Malme-3M
[29] = tested on: NCI-H226
[30] = tested on: NCI-H23
[31] = tested on: NCI-H460
[32] = tested on: NCI-H522
[33] = tested on: NCI/ADR-RES
[34] = tested on: OVCAR-3
[35] = tested on: OVCAR-4
[36] = tested on: OVCAR-5
[37] = tested on: OVCAR-8
[38] = tested on: PC-3
[39] = tested on: RPMI-8226
[40] = tested on: RXF 393
[41] = tested on: SF-268
[42] = tested on: SF-295
[43] = tested on: SF-539
[44] = tested on: SK-MEL-28
[45] = tested on: SK-MEL-2
[46] = tested on: SK-MEL-5
[47] = tested on: SN12C
[48] = tested on: SNB-19
[49] = tested on: SNB-75
[50] = tested on: SR
[51] = tested on: SW-620
[52] = tested on: TK-10
[53] = tested on: U-251
[54] = tested on: UACC-257
[55] = tested on: UACC-62
[56] = tested on: UO-31
[57] = tested on: HL-60
[58] = tested on: SK-OV-3
[59] = tested on: T47D

Measured: GI50

Nc1nc(-c2ccccc2)cc(-c2ccc(OCc3ccccc3)cc2O)n1
inactive: [1] 40.9 µM | [2] 60.3 µM | [3] 33.4 µM | [4] 31.3 µM | [5] 28.8 µM | [6] 57.1 µM | [7] 17 µM | [8] 45.7 µM | [9] 73.6 µM | [10] 50.4 µM | [11] 34.4 µM | [12] 28.8 µM | [14] 83.9 µM | [15] 38.7 µM | [16] 37.8 µM | [17] 37.1 µM | [18] 32.7 µM | [19] 43 µM | [20] 34.4 µM | [21] 33.9 µM | [22] 30.8 µM | [23] 32.1 µM | [24] 70.3 µM | [25] 34 µM | [26] 39.3 µM | [27] 48.4 µM | [28] 24.2 µM | [29] 46.1 µM | [30] 38.3 µM | [31] 40.4 µM | [32] 20.5 µM | [33] 29.4 µM | [34] 26.7 µM | [35] 71.6 µM | [36] > 100 µM | [37] 29.6 µM | [38] 34.4 µM | [39] 22.7 µM | [40] 27.5 µM | [41] 44.3 µM | [42] 36.4 µM | [43] 26 µM | [44] 89.9 µM | [45] 32.4 µM | [46] 17.5 µM | [47] 76.9 µM | [48] 50.2 µM | [49] 67.6 µM | [50] 39.8 µM | [51] 39.4 µM | [52] 24.7 µM | [53] 31.8 µM | [54] 48.8 µM | [55] 64.7 µM | [56] 38.1 µM
32.2 µM: [13]

O=C(/C=C/c1cccc(Br)c1)c1cccs1
inactive: [1] 15.8 µM | [2] 16.5 µM | [3] 17.4 µM | [4] 20.1 µM | [6] 16.1 µM | [7] 4.23 µM | [8] 21 µM | [9] > 10 µM | [10] 18.5 µM | [11] 23 µM | [12] 5.47 µM | [57] 3.83 µM | [14] 26 µM | [16] 11.5 µM | [17] 27.9 µM | [18] 17.1 µM | [19] 3.13 µM | [20] 13.7 µM | [22] 25.1 µM | [23] 3.44 µM | [24] 16.7 µM | [25] 11.7 µM | [26] 10.3 µM | [27] 15.3 µM | [28] 22.1 µM | [29] 17.9 µM | [30] 19.5 µM | [31] 16.2 µM | [33] 23.6 µM | [35] 16.5 µM | [37] 17.7 µM | [38] 17.5 µM | [39] 2.09 µM | [41] 19.6 µM | [42] 16.6 µM | [43] 18 µM | [44] 18.1 µM | [45] 17.7 µM | [46] 16.9 µM | [58] 23.8 µM | [47] 14.7 µM | [48] 14.2 µM | [49] 14.6 µM | [50] 10.1 µM | [51] 9.35 µM | [59] 15.3 µM | [52] 16.4 µM | [53] 13.9 µM | [54] 18.4 µM | [55] 16.2 µM | [56] 13 µM
14.6 µM: [13]

S=C1SC(c2ccc(Cl)cc2)(c2ccc(Cl)cc2)c2ccccc21
65 µM: [13]
inactive: [1] > 100 µM | [2] 81.8 µM | [3] 77.6 µM | [4] > 100 µM | [5] 79.1 µM | [6] 53.8 µM | [7] 43.7 µM | [8] 80.5 µM | [9] 55.1 µM | [10] 91.4 µM | [11] 59.8 µM | [12] 24.7 µM | [14] > 100 µM | [15] 44.4 µM | [16] 28 µM | [17] > 100 µM | [18] > 100 µM | [19] 64.9 µM | [20] 40.3 µM | [21] 25.7 µM | [22] 79.4 µM | [23] 38.5 µM | [24] > 100 µM | [25] 62.7 µM | [26] 62.2 µM | [27] 37.2 µM | [28] > 100 µM | [29] 51.2 µM | [30] 71 µM | [31] > 100 µM | [32] 91.8 µM | [33] > 100 µM | [34] 72.1 µM | [35] > 100 µM | [36] > 100 µM | [37] > 100 µM | [38] 58.6 µM | [40] 56.9 µM | [41] 95.1 µM | [42] 53.7 µM | [43] > 100 µM | [44] 67.8 µM | [46] 64 µM | [58] > 100 µM | [47] > 100 µM | [48] > 100 µM | [49] > 100 µM | [50] 20.4 µM | [51] 68.7 µM | [52] > 100 µM | [53] > 100 µM | [54] 31 µM | [55] > 100 µM | [56] > 100 µM

c1ccc(C(NC2=NCCO2)c2ccccc2)cc1
inactive: [2] 5.75 µM | [3] > 10 µM | [4] > 10 µM | [6] > 10 µM | [7] > 10 µM | [8] > 10 µM | [9] > 10 µM | [10] > 10 µM | [11] > 10 µM | [12] > 10 µM | [57] > 10 µM | [14] > 10 µM | [16] > 10 µM | [17] > 10 µM | [18] > 10 µM | [19] > 10 µM | [20] > 10 µM | [21] > 10 µM | [22] > 10 µM | [23] 6 µM | [24] > 10 µM | [25] > 10 µM | [26] > 10 µM | [27] > 10 µM | [28] > 10 µM | [29] > 10 µM | [30] > 10 µM | [31] > 10 µM | [32] > 10 µM | [33] > 10 µM | [34] > 10 µM | [35] > 10 µM | [36] > 10 µM | [37] > 10 µM | [38] > 10 µM | [39] > 10 µM | [40] > 10 µM | [41] > 10 µM | [42] 9.33 µM | [43] > 10 µM | [44] > 10 µM | [45] > 10 µM | [46] > 10 µM | [58] > 10 µM | [47] > 10 µM | [48] > 10 µM | [49] > 10 µM | [50] > 10 µM | [51] > 10 µM | [59] > 10 µM | [52] > 10 µM | [53] > 10 µM | [55] > 10 µM | [56] > 10 µM
> 10 µM: [13]

CC(=O)CC1(OC(=O)C2C(C=C(C)C)C2(C)C)C(=O)Nc2ccccc21 (centres undefined)
inactive: [1] > 100 µM | [2] > 100 µM | [3] > 100 µM | [4] 78.3 µM | [6] > 100 µM | [7] 55.3 µM | [8] > 100 µM | [9] > 100 µM | [10] > 100 µM | [11] > 100 µM | [12] > 100 µM | [57] > 100 µM | [14] > 100 µM | [16] > 100 µM | [17] > 100 µM | [18] > 100 µM | [19] 77.3 µM | [20] > 100 µM | [21] > 100 µM | [22] > 100 µM | [24] > 100 µM | [25] > 100 µM | [26] > 100 µM | [27] > 100 µM | [28] > 100 µM | [29] > 100 µM | [30] > 100 µM | [31] 82.8 µM | [32] 64.6 µM | [33] 68.5 µM | [34] 54.2 µM | [35] 84.9 µM | [36] > 100 µM | [37] > 100 µM | [38] 37.6 µM | [39] 96.6 µM | [40] > 100 µM | [41] > 100 µM | [42] > 100 µM | [43] > 100 µM | [44] > 100 µM | [45] > 100 µM | [46] > 100 µM | [58] > 100 µM | [47] > 100 µM | [48] > 100 µM | [49] 51.3 µM | [50] > 100 µM | [51] > 100 µM | [59] > 100 µM | [52] > 100 µM | [53] > 100 µM | [54] > 100 µM | [55] > 100 µM | [56] > 100 µM
> 100 µM: [13]
